Assay results: patent publication US20240277637A1, “CAPSAICIN DERIVATIVES IN THE TREATMENT OF IDIOPATHIC PULMONARY FIBROSIS” (aXichem AB, priority 2021, published 2024)
“Also recorded” adds a separate entry of the source.

Tests used:
[1] = test system: human bronchial epithelial cells; experiment: Clonogenic cell survival assay, bronchial epithelial cells with PDGF-AB (Example 3); type: cell-based; settings: 10 ng/ml PDGF-AB, 14 days; for effect on clonogenic survival / PDGF inhibition (words): 0-10 μM
Experimental: (§1) Primary isolated human bronchial epithelial cells (NHBE) were used in this assay sourced from the American Tissue Culture Collection (Normal, Human (ATCC® BEAS-2B™)) and were cultured up to passage 6. […].
A clonogenic cell survival assay determines the ability of a cell to proliferate indefinitely. Cells were plated with increasing numbers (102 to 5×10^4) in 25 cm^2 flasks. SU9518, SU9518, a known inhibitor PDGF that has shown the ability to reduce radiation-induced fibroblast and endothelial cell activation, and phenylcapsaicin were used as positive controls. The cells were incubated with 0-10 μM (3% DMSO aqueous) of phenylcapsaicin, SU9518, and compounds 1 and 3-7 separately in the presence of 10 ng/ml PDGF-AB (Sigma Aldrich). The flasks were returned to the incubator for 14 days, after which they were stained with crystal violet (Sigma Aldrich). The colonies were counted and the surviving percentage was determined for clonogenic survival after correcting for plating efficiency.

[2] = test system: human bronchial epithelial cells; experiment: Clonogenic cell survival assay, bronchial epithelial cells with PDGF-AB (Example 4); type: cell-based; settings: 10 ng/ml PDGF-AB, 14 days; for effect on clonogenic survival / PDGF inhibition (words): 0-10 μM
Experimental: as §1
The effects of Phenylcapsaicin (2) on clonogenic survival of bronchial epithelial cells, by plating the cells with increasing numbers (102 to 5×104) in 25 cm^2 flasks were investigated. SU9518* and Phenylcapsaicin were used as positive controls. The cells were incubated with 0-10 μM (3% DMSO aqueous) of Phenylcapsaicin, SU9518, and compounds 8-12 separately in the presence of 10 ng/ml PDGF-AB (Sigma Aldrich). The flasks were returned to the incubator for 14 days, after which they were stained with crystal violet (Sigma Aldrich). The colonies were counted and the surviving percentage was determined for clonogenic survival after correcting for plating efficiency. The synthetic analogs were all calculated at 100% purity for molar concentrations.

| Compound | effect on clonogenic survival / PDGF inhibition (words) [1] | Clonogenic Survival Assay (percent) ([1]; 0.10 μM) [%] | Clonogenic Survival Assay (percent) ([1]; 0.50 μM) [%] | Clonogenic Survival Assay (percent) ([1]; 1.00 μM) [%] | Clonogenic Survival Assay (percent) ([1]; 2.00 μM) [%] | Clonogenic Survival Assay (percent) ([1]; 5.00 μM) [%] | Clonogenic Survival Assay (percent) ([1]; 10.00 μM) [%] | effect on clonogenic survival / PDGF inhibition (words) [2] | Clonogenic Survival Assay (percent) ([2]; 0.10 uM) [%] | Clonogenic Survival Assay (percent) ([2]; 0.50 uM) [%] | Clonogenic Survival Assay (percent) ([2]; 1.00 uM) [%] | Clonogenic Survival Assay (percent) ([2]; 2.00 uM) [%] | Clonogenic Survival Assay (percent) ([2]; 5.00 uM) [%] | Clonogenic Survival Assay (percent) ([2]; 10.00 uM) [%] | further results |
| --- | --- | --- | --- | --- | --- | --- | --- | --- | --- | --- | --- | --- | --- | --- | --- |
| COc1cc(CNC(=O)CCCC/C=C/C(C)C)ccc1O [Compound 1, capsaicin] | did not show any PDGF inhibition | 97 | 97 | 95 | 96 | 96 | 95 | no inhibition of PDGF was observed | 97 | 98 | 95 | 96 | 96 | 95 | effect on clonogenic survival / PDGF inhibition (words) ([1]; listed as capsaicin): no inhibition of PDGF was observed; Clonogenic Survival Assay (percent) ([1]; 10.00 μM, listed as capsaicin): 95% |
| COc1cc(CNC(=O)CCCCC#CC2CCCCC2)ccc1O [Compound 3] | some modest activity | 91 | 83 | 77 | 74 | 71 | 73 | – | – | – | – | – | – | – | effect on clonogenic survival / PDGF inhibition (words) ([1]; listed as compound 3): PDGF inhibition activity dropped significantly; Clonogenic Survival Assay (percent) ([1]; 10.00 μM, listed as compound 3): 73% |
| COc1cc(CNC(=O)CCCCC#CC(C)(C)C)ccc1O [Compound 4] | did not show any PDGF inhibition | 97 | 95 | 97 | 96 | 91 | 91 | – | – | – | – | – | – | – | effect on clonogenic survival / PDGF inhibition (words) ([1]; listed as compound 4): completely eliminated the PDGF inhibiting activity; Clonogenic Survival Assay (percent) ([1]; 10.00 μM, listed as compound 4): 91% |
| COc1cc(CNC(=O)CCCCC#Cc2ccccc2)ccc1OC(C)=O [Compound 5, 2-Methoxy-4-[(6-phenyl-5-hexynylcarbonylamino)methyl]phenyl acetate] | greater PDGF inhibition than both the parent PheCap (2) and the positive control SU9518; also recorded: significant improvement in PDGF inhibiting activity | 78 | 60 | 45 | 32 | 30 | 20 | – | – | – | – | – | – | – | effect on clonogenic survival / PDGF inhibition (words) ([1]; listed as compound 5): significant improvement in PDGF inhibiting activity; Clonogenic Survival Assay (percent) ([1]; 10.00 μM, listed as compound 5): 20% |
| COc1cc(CNC(=O)CCCCC#CC2CCCCC2)ccc1OC(C)=O [Compound 6] | some modest activity | 89 | 82 | 76 | 64 | 69 | 61 | – | – | – | – | – | – | – | effect on clonogenic survival / PDGF inhibition (words) ([1]; listed as compound 6): gave better results than compound 3 |
| COc1cc(CNC(=O)CCCCC#CC(C)(C)C)ccc1OC(C)=O [Compound 7] | did not show any PDGF inhibition | 99 | 96 | 96 | 91 | 94 | 93 | – | – | – | – | – | – | – | effect on clonogenic survival / PDGF inhibition (words) ([1]; listed as compound 7): could not mediate the negative effects of the tert-butyl group |
| COc1cc(CNC(=O)CCCCCCc2ccccc2)ccc1O [Compound 8, N-[(4-Hydroxy-3-methoxyphenyl)methyl]7-phenylheptanamide] | – | – | – | – | – | – | – | did not show any reduction in clonogenic cell survival | 97 | 100 | 97 | 95 | 96 | 97 | – |
| C#CCCCCC(=O)NCc1ccc(O)c(OC)c1 [Compound 9] | – | – | – | – | – | – | – | did not show any reduction in clonogenic cell survival | 100 | 97 | 99 | 96 | 96 | 99 | – |
| COc1cc(CNC(=O)CCCCC#Cc2ccc([N+](=O)[O-])cc2)ccc1O [Compound 10, N-[(4-Hydroxy-3-methoxyphenyl)methyl]-7-(p-nitrophenyl)-6-heptynamide] | – | – | – | – | – | – | – | – | 73 | 55 | 51 | 40 | 41 | 39 | – |
| COc1ccc(C#CCCCCC(=O)NCc2ccc(O)c(OC)c2)cc1 [Compound 11, N-[(4-Hydroxy-3-methoxyphenyl)methyl]-7-(p-methoxyphenyl)-6-heptynamide] | – | – | – | – | – | – | – | higher reduction than the lead phenylcapsaicin | 72 | 57 | 51 | 33 | 28 | 21 | effect on clonogenic survival / PDGF inhibition (words) ([2]; listed as compound 11): further improved |
| COc1cc(CNC(=O)CCCCC#Cc2cccc3ccccc23)ccc1O [Compound 12, N-[(4-Hydroxy-3-methoxyphenyl)methyl]-7-(1-naphthyl)-6-heptynamide] | – | – | – | – | – | – | – | – | 81 | 79 | 61 | 53 | 48 | 32 | – |
